Source: patent publication US5358712A, “Radiopharmaceutical agents for the detection of Alzheimer's disease” (Regents of the University of Minnesota, priority 1993, dated 1994)
“Also recorded” adds a separate entry of the source.

Legend:
vesamicol receptor [1] = settings: cited from earlier work
[2] = system: vesicular acetylcholine storage; settings: cited from earlier work; for vesamicol-like inhibitory activity (in words): Kaufman et al 1988
[3] = Tissue distribution (biodistribution) of radioiodinated compound in the rat; settings: for injected dose found in the brain: 5 minutes post injection; for concentration of radioactivity in the brain over time: duration of the study (3 hours); for Brain: Blood Ratio / Heart: Blood Ratio / radioactivity in blood / radioactivity in brain / radioactivity in heart / radioactivity in kidney / radioactivity in liver / radioactivity in lung / radioactivity in muscle / radioactivity in spleen: iv; for level of radioactivity in the blood: throughout the study; for brain retention (in words): rodent (and monkey)
Description: Four groups of male Wistar rats (with four animals per group) weighing 200-350 g were used in these experiments. Each animal received, while under ether anesthesia, an intravenous injection of the radiotracer (10-20 μCi) dissolved in 0.1 ml of 50% aqueous ethanol. At 5, 30, and 60 and 180 min. post-injection, blood was collected from the anesthetized animals by cardiac puncture, and the animal was immediately sacrificed by cardiectomy. The organs and tissues of interest were harvested, transferred to preweighed tubes and counted in a Beckman gamma counter. The tubes were subsequently reweighed to give the weight of the corresponding tissues. Preweighed tubes containing ^1 -ml samples of a 1:100 dilution of the injection dose were also counted and used as reference for calculating the tissue accumulation of radioactivity. The accumulation of radiotracer was expressed as a percentage of injected dose per gram of tissue.

rat brain = test: Ex vivo autoradiographic studies, regional distribution in the rodent brain; design: species or system rat (male Wistar); settings: 3 hours
Description: Four male Wistar rats weighing 300-330 g. were anesthetized with diethyl ether. While under anesthesia two animals each received an intravenous dose of 300 μCi of (-)-4-[^125 I]HIPP in […] of 50% aqueous ethanol. The second pair of animals received an iv dose of (+)-4-[^125I]HIPP (170 μCi) in the same solvent. The animals were sacrificed by decapitation three hours following radiotracer administration. The brains were harvested, embedded in Tissue Tek OCT embedding medium and frozen to -38° C. Twenty-micron thick brain sections were obtained at -15° C. using a Reicheft HistoSTAT cryostat microtome. The sections were dried and opposed to Kodak NMC film for autoradiography accompanied by external standards (^125 I-labelled microscales from Amersham). Images were subsequently digitized based on the linear scale obtained from these standards.

vesamicol receptor [4] = test: Blocking experiments: inhibition of radiotracer accumulation in the rat by coadministered compound; assay type: in vivo, rat (male Wistar); settings: rat, 60 min; for reduction of accumulation of radioactivity in the brain / reduction of accumulation of radioactivity in the heart: coadministered blocker; for Brain: Blood Ratio / Heart: Blood Ratio / radioactivity in liver / radioactivity in blood / radioactivity in brain / radioactivity in heart / radioactivity in kidney / radioactivity in lung / radioactivity in muscle / radioactivity in spleen: iv
Outline: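 Male Wistar rats (n=3/group) got iv radiotracer, alone or coadministered with blocker (e.g. (+)/(−)-HBrPP·HCl 1.3 μmol/kg, vesamicol·HCl 1.1 μmol/kg, or 0.31–0.53 mg/kg in other series). Blood and tissues taken 60 min post-injection to assess radiotracer accumulation.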

[5] = + (dl)-vesamicol HCl 0.3 (Table 3) or 0.31 mg/kg

Nc1cccc2c1CC(N1CCC(c3ccccc3)CC1)C(O)C2 (stereo not drawn) [Compound 2]
ligand potency at the vesamicol receptor (in words) (vesamicol receptor [1]; literature): potent ligands
vesamicol-like inhibitory activity (in words) ([2]; Rogers et al 1989): potent

OCCN1CCC(c2ccccc2)CC1 [Compound 4]
vesamicol-like inhibitory activity (in words) ([2]; Rogers et al 1989): weak inhibitors; also recorded: very weak inhibitor
potency relative to vesamicol ([2]; Rogers et al 1989): two hundred and fifty times less potent

OC1Cc2ccccc2CC1N1CCC(c2ccccc2)CC1 (stereo not drawn) [Compound 1]
eudesmic ratio (vesamicol receptor [1]): not unity
vesamicol-like inhibitory activity (in words) ([2]; Rogers et al 1989): potent

OC(Cc1ccc([125I])cc1)CN1CCC(c2ccccc2)CC1 (single isomer, unassigned; (-)) [(-)-4-[^125 l]HIPP] [2-Hydroxy-3-(4-iodophenyl)-1-(4-phenylpiperidyl)propane]
injected dose found in the brain ([3]; rat, listed as (-)-[^125 I]5): 1.94 % of the injected dose
injected dose found in the heart ([3]; rat, 5 minutes post-injection, listed as (-)-[^125 I]5): 1.2 % of the injected dose
reduction of injected dose in the heart ([3]; rat, 5 minutes to 3 hours): 50%
injected dose found in the heart ([3]; rat, after 3 hours): 0.59 % of the injected dose
concentration of radioactivity in the brain over time ([3]; rat, listed as (-)-[^125 I]5): remained essentially stable
Brain: Blood Ratio ([3]; rat, 5 min): 12.3
Heart: Blood Ratio ([3]; rat, 5 min): 16.4
radioactivity in blood ([3]; rat, 5 min): 0.09 % dose/g
radioactivity in brain ([3]; rat, 5 min): 1.03 % dose/g
radioactivity in heart ([3]; rat, 5 min): 1.32 % dose/g
radioactivity in kidney ([3]; rat, 5 min): 2.89 % dose/g
radioactivity in liver ([3]; rat, 5 min): 1.33 % dose/g
radioactivity in lung ([3]; rat, 5 min): 8.62 % dose/g
radioactivity in muscle ([3]; rat, 5 min): 0.35 % dose/g
radioactivity in spleen ([3]; rat, 5 min): 0.87 % dose/g
Brain: Blood Ratio ([3]; rat, 30 min): 31.3
Heart: Blood Ratio ([3]; rat, 30 min): 26.8
radioactivity in blood ([3]; rat, 30 min): 0.03 % dose/g
radioactivity in brain ([3]; rat, 30 min): 0.94 % dose/g
radioactivity in heart ([3]; rat, 30 min): 0.74 % dose/g
radioactivity in kidney ([3]; rat, 30 min): 2.23 % dose/g
radioactivity in liver ([3]; rat, 30 min): 2.28 % dose/g
radioactivity in lung ([3]; rat, 30 min): 4.80 % dose/g
radioactivity in muscle ([3]; rat, 30 min): 0.19 % dose/g
radioactivity in spleen ([3]; rat, 30 min): 1.09 % dose/g
Brain: Blood Ratio ([3]; rat, 60 min): 55.5
Heart: Blood Ratio ([3]; rat, 60 min): 40.3
radioactivity in blood ([3]; rat, 60 min): 0.02 % dose/g
radioactivity in brain ([3]; rat, 60 min): 0.98 % dose/g
radioactivity in heart ([3]; rat, 60 min): 0.72 % dose/g
radioactivity in kidney ([3]; rat, 60 min): 1.85 % dose/g
radioactivity in liver ([3]; rat, 60 min): 2.0 % dose/g
radioactivity in lung ([3]; rat, 60 min): 3.33 % dose/g
radioactivity in muscle ([3]; rat, 60 min): 0.18 % dose/g
radioactivity in spleen ([3]; rat, 60 min): 1.40 % dose/g
Brain: Blood Ratio ([3]; rat, 180 min): 69.7
Heart: Blood Ratio ([3]; rat, 180 min): 42.5
radioactivity in blood ([3]; rat, 180 min): 0.01 % dose/g
radioactivity in brain ([3]; rat, 180 min): 0.94 % dose/g
radioactivity in heart ([3]; rat, 180 min): 0.57 % dose/g
radioactivity in kidney ([3]; rat, 180 min): 1.63 % dose/g
radioactivity in liver ([3]; rat, 180 min): 2.43 % dose/g
radioactivity in lung ([3]; rat, 180 min): 2.52 % dose/g
radioactivity in muscle ([3]; rat, 180 min): 0.16 % dose/g
radioactivity in spleen ([3]; rat, 180 min): 1.21 % dose/g
level of radioactivity in the blood ([3]; rat): low
brain retention (in words) [3]: comparable retention
radioactivity in cerebellar molecular layer relative to granular layer (rat brain): slightly higher concentration
radioactivity in frontal cortex and caudate-putamen (rat brain): Moderate levels
radioactivity in pineal gland and nuclei of fifth and seventh cranial nerves (rat brain): highest levels
radioactivity in the white matter (rat brain): relatively low
reduction of accumulation of radioactivity in the brain (vesamicol receptor [4]; listed as (-)-[^125 I]5): 70%
reduction of accumulation of radioactivity in the heart (vesamicol receptor [4]; listed as (-)-[^125 I]5): 84%
Brain: Blood Ratio (vesamicol receptor [4]; + (+)-7 HCl 0.53 mg/kg): 5.6
Heart: Blood Ratio (vesamicol receptor [4]; + (+)-7 HCl 0.53 mg/kg): 2.5
radioactivity in liver (vesamicol receptor [4]; + (+)-7 HCl 0.53 mg/kg): 2.87 % dose/g of tissue
Brain: Blood Ratio (vesamicol receptor [4]; + (-)-7 HCl 0.53 mg/kg): 7.1
Heart: Blood Ratio (vesamicol receptor [4]; + (-)-7 HCl 0.53 mg/kg): 3.0
radioactivity in liver (vesamicol receptor [4]; + (-)-7 HCl 0.53 mg/kg): 1.90 % dose/g of tissue
Brain: Blood Ratio (vesamicol receptor [4]; [5]): 12.7
Heart: Blood Ratio (vesamicol receptor [4]; [5]): 4.9
Brain: Blood Ratio (vesamicol receptor [4]; radiotracer only (control)): 42.7
Heart: Blood Ratio (vesamicol receptor [4]; radiotracer only (control)): 36.5

CC(O)CN1CCC(c2ccccc2)CC1 (stereo not drawn) [Compound 14b]
increase in activity relative to ethanol analog 4 ([2]; addition of an α-methyl group): thirty-fold increase in activity

CC(O)CN1CCC(c2ccccc2)CC1 (stereo not drawn) [Compound 14]
vesamicol-like inhibitory activity (in words) ([2]; Rogers et al 1989): weak inhibitors

OC(Cc1ccc([125I])cc1)CN1CCC(c2ccccc2)CC1 (single isomer, unassigned; (+)) [(+)-4-[^125 l]HIPP] [2-Hydroxy-3-(4-iodophenyl)-1-(4-phenylpiperidyl)propane]
tissue distribution profile compared with (-)-[^125 I]5 ([3]; rat): similar
injected dose found in the brain ([3]; rat, listed as (+)-[^125 I]5): 2.27 % of the injected dose
injected dose found in the heart ([3]; rat, 5 minutes post-injection, listed as (+)-[^125 I]5): 1.23 % of the injected dose
decrease of radioactivity in the heart ([3]; rat, between 5 and 30 minutes): 32%
concentration of radioactivity in the brain over time ([3]; rat, listed as (+)-[^125 I]5): remained essentially constant
Brain: Blood Ratio ([3]; rat, 5 min): 15.2
Heart: Blood Ratio ([3]; rat, 5 min): 22.7
Brain: Blood Ratio ([3]; rat, 30 min): 32.4
Heart: Blood Ratio ([3]; rat, 30 min): 32.7
Brain: Blood Ratio ([3]; rat, 60 min): 44.3
Heart: Blood Ratio ([3]; rat, 60 min): 40.2
Brain: Blood Ratio ([3]; rat, 180 min): 44.8
Heart: Blood Ratio ([3]; rat, 180 min): 28.2
level of radioactivity in the blood ([3]; rat): low
brain retention (in words) [3]: comparable retention
radioactivity in cerebellar molecular layer relative to granular layer (rat brain): slightly higher concentration
radioactivity in frontal cortex and caudate-putamen (rat brain): Moderate levels
radioactivity in pineal gland and nuclei of fifth and seventh cranial nerves (rat brain): highest levels
radioactivity in the white matter (rat brain): relatively low
reduction of accumulation of radioactivity in the brain (vesamicol receptor [4]; listed as (+)-[^125 I]5): 53%-58%
reduction of accumulation of radioactivity in the heart (vesamicol receptor [4]; listed as (+)-[^125 I]5): 74% -76%
Brain: Blood Ratio (vesamicol receptor [4]; + (+)-7 HCl 0.53 mg/kg): 3.9
Heart: Blood Ratio (vesamicol receptor [4]; + (+)-7 HCl 0.53 mg/kg): 1.8
radioactivity in blood (vesamicol receptor [4]; + (+)-7 HCl 0.53 mg/kg): 0.06 % dose/g of tissue
radioactivity in brain (vesamicol receptor [4]; + (+)-7 HCl 0.53 mg/kg): 0.32 % dose/g of tissue
radioactivity in heart (vesamicol receptor [4]; + (+)-7 HCl 0.53 mg/kg): 0.15 % dose/g of tissue
radioactivity in kidney (vesamicol receptor [4]; + (+)-7 HCl 0.53 mg/kg): 0.47 % dose/g of tissue
radioactivity in liver (vesamicol receptor [4]; + (+)-7 HCl 0.53 mg/kg): 1.13 % dose/g of tissue
radioactivity in lung (vesamicol receptor [4]; + (+)-7 HCl 0.53 mg/kg): 1.29 % dose/g of tissue
radioactivity in muscle (vesamicol receptor [4]; + (+)-7 HCl 0.53 mg/kg): 0.08 % dose/g of tissue
radioactivity in spleen (vesamicol receptor [4]; + (+)-7 HCl 0.53 mg/kg): 0.71 % dose/g of tissue
radioactivity in spleen (vesamicol receptor [4]; + (-)-7 HCl 0.53 mg/kg): 0.57 % dose/g of tissue
Brain: Blood Ratio (vesamicol receptor [4]; + (-)-7 HCl 0.53 mg/kg): 4.5
Heart: Blood Ratio (vesamicol receptor [4]; + (-)-7 HCl 0.53 mg/kg): 2.0
radioactivity in blood (vesamicol receptor [4]; + (-)-7 HCl 0.53 mg/kg): 0.05 % dose/g of tissue
radioactivity in brain (vesamicol receptor [4]; + (-)-7 HCl 0.53 mg/kg): 0.32 % dose/g of tissue
radioactivity in heart (vesamicol receptor [4]; + (-)-7 HCl 0.53 mg/kg): 0.16 % dose/g of tissue
radioactivity in kidney (vesamicol receptor [4]; + (-)-7 HCl 0.53 mg/kg): 0.54 % dose/g of tissue
radioactivity in liver (vesamicol receptor [4]; + (-)-7 HCl 0.53 mg/kg): 0.90 % dose/g of tissue
radioactivity in lung (vesamicol receptor [4]; + (-)-7 HCl 0.53 mg/kg): 1.51 % dose/g of tissue
radioactivity in muscle (vesamicol receptor [4]; + (-)-7 HCl 0.53 mg/kg): 0.09 % dose/g of tissue
Brain: Blood Ratio (vesamicol receptor [4]; [5]): 9.7
Heart: Blood Ratio (vesamicol receptor [4]; [5]): 3.8
radioactivity in blood (vesamicol receptor [4]; [5]): 0.04 % dose/g of tissue
radioactivity in brain (vesamicol receptor [4]; [5]): 0.36 % dose/g of tissue
radioactivity in heart (vesamicol receptor [4]; [5]): 0.15 % dose/g of tissue
radioactivity in kidney (vesamicol receptor [4]; [5]): 0.46 % dose/g of tissue
radioactivity in liver (vesamicol receptor [4]; [5]): 2.23 % dose/g of tissue
radioactivity in lung (vesamicol receptor [4]; [5]): 1.11 % dose/g of tissue
radioactivity in muscle (vesamicol receptor [4]; [5]): 0.08 % dose/g of tissue
radioactivity in spleen (vesamicol receptor [4]; [5]): 0.68 % dose/g of tissue
Brain: Blood Ratio (vesamicol receptor [4]; radiotracer only (control)): 28.7
Heart: Blood Ratio (vesamicol receptor [4]; radiotracer only (control)): 39.8
radioactivity in blood (vesamicol receptor [4]; radiotracer only (control)): 0.02 % dose/g of tissue
radioactivity in brain (vesamicol receptor [4]; radiotracer only (control)): 0.76 % dose/g of tissue
radioactivity in heart (vesamicol receptor [4]; radiotracer only (control)): 0.60 % dose/g of tissue
radioactivity in kidney (vesamicol receptor [4]; radiotracer only (control)): 1.63 % dose/g of tissue
radioactivity in liver (vesamicol receptor [4]; radiotracer only (control)): 1.38 % dose/g of tissue
radioactivity in lung (vesamicol receptor [4]; radiotracer only (control)): 3.46 % dose/g of tissue
radioactivity in muscle (vesamicol receptor [4]; radiotracer only (control)): 0.13 % dose/g of tissue
radioactivity in spleen (vesamicol receptor [4]; radiotracer only (control)): 1.10 % dose/g of tissue
